Patent publication US20190133128A1, “Fungicidal pyridazinones” (FMC Corporation, priority 2017, published 2019)

Key:
Type in all cases: in vivo
[1] = tested on: Puccinia recondita f. sp. tritici; test: Test F: preventive spray on wheat seedlings, wheat leaf rust, visual disease rating; settings: for pest or weed control at 250 ppm: Puccinia recondita
Outline: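 Preventive test: wheat seedlings were sprayed to run-off with compound suspended in acetone/water 50/50 plus PEG400 (250 ppm or other indicated rate). One day later they received Puccinia recondita f. sp. tritici spores, and disease was scored visually.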

[2] = tested on: Phytophthora infestans; test: whole plant or invertebrate; settings: for Test D disease control rating: tomato seedlings; for pest or weed control at 250 ppm: Phytophthora infestans, in Solanum lycopersicum, read-out: Test D disease control rating
[3] = tested on: Plasmopara viticola; test: Test B: preventive spray on grape seedlings, grape downy mildew, disease rating
Excerpt: General protocol for preparing test solutions for Tests AG: the test compounds were first dissolved in acetone in an amount equal to 3% of the final volume and then suspended at the desired concentration (in ppm) in acetone and purified water (50/50 mix by volume) containing the surfactant PEG400 (polyhydric alcohol esters). The resulting test suspensions were then used in Tests AG. Compounds were sprayed at a concentration of 250 ppm or other indicated rate to the point of run-off on the test plants. The test solution was sprayed to the point of run-off on grape seedlings. […] A dash (-) indicates no test results.

[4] = tested on: Botrytis cinerea; test: Test C: preventive spray on tomato seedlings, gray mold, visual disease rating; settings: for pest or weed control at 250 ppm: Botrytis cinerea
Outline: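 Tomato seedlings received a run-off spray, typically 250 ppm (or stated rate), ahead of gray mold inoculation and visual scoring. Test suspensions: acetone stock (3% of volume) diluted into 1:1 acetone/water containing PEG400.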

[5] = tested on: Erysiphe graminis f. sp. tritici; test: Test G: preventive spray on wheat seedlings, wheat powdery mildew, visual disease rating; settings: for pest or weed control at 250 ppm: Blumeria graminis, 192 h
Outline: (§1)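 Preventive foliar spray of wheat seedlings to run-off, at 250 ppm or other indicated rate. Compounds dissolved in acetone (3% of final volume), suspended in 50/50 acetone–water with PEG400 surfactant. Disease rated visually.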

[6] = tested on: Phakopsora pachyrhizi; test: Test A: preventive spray on soybean seedlings, Asian soybean rust, visual disease rating; settings: 250 ppm, 100 = 100% disease control, 0 = no control
[7] = tested on: Zymoseptoria tritici; test: Test E: preventive spray on wheat seedlings, wheat leaf blotch, visual disease rating; settings: for pest or weed control at 250 ppm: Zymoseptoria tritici
Outline: as §1

[8] = 250 ppm, 100 = 100% disease control, 0 = no control

| Compound | Test F disease control rating [1, 8] [%] | Test D disease control rating [2, 8] [%] | Test B disease control rating [3, 8] [%] | Test C disease control rating [4, 8] [%] | Test G disease control rating [5, 8] [%] | Test E disease control rating [7, 8] [%] | other results |
| --- | --- | --- | --- | --- | --- | --- | --- |
| Cn1ncc(O)c(C(=O)Nc2cccc(Oc3ccccc3)c2)c1=O [Compound 151] | 85 | 0 | 83 | 0 | 13 |  | Test A disease control rating [6]: 0% |
| Cc1cc(C(F)(F)F)ccc1NC(=O)c1c(O)cnn(C)c1=O [Compound 117] | 99 | 97 | 100 | 0 | 90 |  | Test A disease control rating [6]: 0% |
| Cn1ncc(O)c(C(=O)NC2CCCCC2)c1=O [Compound 39] | 0 | 0 | 70 | 0 | 69 | 0 |  |
| O=C(Nc1ccc(OC(F)(F)F)cc1)c1c(O)cn[nH]c1=O [Compound 136] | 93 | 91 | 100 | 0 | 0 |  | Test A disease control rating [6]: 0% |
| CC(=O)Oc1cnn(C)c(=O)c1C(=O)N(C(C)=O)c1ccc(OC(F)(F)F)cc1 [Compound 84] |  |  |  |  |  |  | Test F disease control rating ([1]; 280 ppm): 100%; Test D disease control rating ([2]; 280 ppm): 100%; Test B disease control rating ([3]; 280 ppm): 99%; Test C disease control rating ([4]; 280 ppm): 0%; Test E disease control rating ([7]; 280 ppm): 100%; Test G disease control rating ([5]; 280 ppm): 99% |
| Cc1ccc(NC(=O)c2c(O)cnn(C)c2=O)cc1 [Compound 93] | 91 | 93 | 94 | 15 | 87 | 65 |  |
| Cn1ncc(O)c(C(=O)Nc2ccc(S(=O)(=O)C(F)(F)F)cc2)c1=O [Compound 129] | 89 | 82 | 98 | 0 | 81 |  | Test A disease control rating [6]: 0% |
| Cn1ncc(O)c(C(=O)Nc2ccc(Cl)cc2Cl)c1=O [Compound 37] | 94 | 95 | 86 | 0 | 76 | 51 |  |
| N-(4-Bromophenyl)-2,3-dihydro-5-hydroxy-2-methyl-3-oxo-4-pyridazinecarboxamide [Compound 75] | 98 | 93 | 86 | 0 | 13 | 83 |  |
| COc1ccc(NC(=O)c2c(O)cnn(C)c2=O)cc1 [Compound 92] | 89 | 68 | 92 | 99 | 35 | 59 |  |
| CC(C)n1ncc(O)c(C(=O)Nc2ccc(OC(F)(F)F)cc2)c1=O [Compound 131] | 91 | 99 | 98 | 0 | 100 | 51 |  |
| Cn1ncc(O)c(C(=O)Nc2ncccc2Cl)c1=O [Compound 45] | 98 | 94 | 88 | 99 | 0 | 0 |  |
| Cn1ncc(O)c(C(=O)Nc2c(Cl)cccc2Cl)c1=O [Compound 141] | 68 |  | 96 | 0 | 64 |  | Test A disease control rating [6]: 50% |
| Cn1ncc(O)c(C(=O)Nc2ccc(C(F)(F)F)cc2)c1=O [Compound 2, 2,3-Dihydro-5-hydroxy-2-methyl-3-oxo-N-[4-(trifluoromethyl)phenyl]-4-pyridazinecarboxamide] |  |  | 97 |  |  |  | pest or weed control at 250 ppm [1, 8]: 100%; pest or weed control at 250 ppm [2]: 99%; pest or weed control at 250 ppm [4, 8]: 0%; pest or weed control at 250 ppm [7, 8]: 97%; pest or weed control at 250 ppm [5, 8]: 97% |
| COC(=O)N(C(=O)c1c(OC(C)=O)cnn(C)c1=O)c1ccc(OC(F)(F)F)cc1 [Compound 88] |  |  |  |  |  |  | Test F disease control rating ([1]; 50 ppm): 83%; Test D disease control rating ([2]; 50 ppm): 57%; Test B disease control rating ([3]; 50 ppm): 91%; Test C disease control rating ([4]; 50 ppm): 0%; Test E disease control rating ([7]; 50 ppm): 32%; Test G disease control rating ([5]; 50 ppm): 89% |
| Cn1ncc(O)c(C(=O)Nc2c(Cl)cc(OC(F)(F)F)cc2Cl)c1=O [Compound 133] | 86 | 89 | 100 | 0 | 100 | 100 |  |
| Cn1ncc(O)c(C(=O)Nc2ccc(OC(F)(F)F)cc2)c1=O [Compound 21, 2,3-Dihydro-5-hydroxy-2-methyl-3-oxo-N-[4-(trifluoromethoxy)phenyl]-4-pyridazinecarboxamide] |  |  | 93 |  |  |  | pest or weed control at 250 ppm [1, 8]: 99%; pest or weed control at 250 ppm [2]: 97%; pest or weed control at 250 ppm [4, 8]: 0%; pest or weed control at 250 ppm [7, 8]: 98%; pest or weed control at 250 ppm [5, 8]: 98% |
| Cn1ncc(O)c(C(=O)Nc2ccc(C(F)(F)C(F)(F)F)cc2)c1=O [Compound 138] | 100 | 99 | 100 | 0 | 99 | 99 |  |
| O=C(Nc1ccc(OC(F)(F)F)cc1)c1c(O)cnn(CC(F)(F)F)c1=O [Compound 119] | 97 | 87 | 100 | 0 | 99 | 73 |  |
| Cc1nnc(NC(=O)c2c(O)cnn(C)c2=O)s1 [Compound 13] | 0 | 0 | 65 | 0 | 0 | 0 |  |
| Cn1ncc(O)c(C(=O)Nc2ncc(Cl)cn2)c1=O [Compound 38] | 68 | 0 | 20 | 0 | 0 | 0 |  |
| Cn1ncc2oc(=O)n(-c3ccc(OC(F)(F)F)cc3)c(=O)c2c1=O [Compound 89, 6-Methyl-3-[4-(trifluoromethoxy)phenyl]-2H-pyridazino[4,5-e]-1,3-oxazine-2,4,5(3H,6H)-trione] |  |  | 99 |  |  |  | pest or weed control at 250 ppm [1, 8]: 99%; pest or weed control at 250 ppm [2]: 67%; pest or weed control at 250 ppm [4, 8]: 0%; pest or weed control at 250 ppm [7, 8]: 97%; pest or weed control at 250 ppm [5, 8]: 61% |
